Test results: patent US20070087982A1, “Methods of treatment and diagnosis using modulators of virus-induced cellular gene sequences” (priority 2003, published 2007)

Assays:
HIV-infected MT-2 cells = test: HIV-induced syncytia formation in MT-2 cells; type: cell-based, human; details: 48 hours post infection
Procedure: The panels of FIG. 7 show the relative extent of HIV-induced syncytia formation in MT-2 cells at 48 hours post infection under various conditions. “Control” cells are HIV-infected cells, but are not treated with any test agent. “DMSO” treatment alone is also included as a control. Other treatments include, AZT, PP3 and PP2, all solubilized in DMSO.

HIV-1 89.6 [1] = test: HIV replication assay (HIV-1 p24 antigen ELISA) in HIV-infected THP-1 and MT-2 cells; type: cell-based; details: for Extent of PMO-induced Inhibition of HIV replication: HIV-1 89.6, measured by gag p24 production, gene-specific PMO antisense
Source text: Introduction of antisense PMO into HIV-infected THP-1 or MT-2 cells. Antisense PMO molecules, for delivery purposes, are typically converted to a paired duplex together with a partially complementary cDNA oligonucleotide in the weakly basic delivery reagent ethoxylated polyethylenimine (EPEI) (Summerton, supra). The anionic complex binds to the cell surface, is taken up by endocytosis and eventually released into the cytosol. A protocol for optimum uptake of antisense PMO in THP-1 and MT-2 cells was developed using a modification of the EPEI method. PMO-AS were obtained from GeneTools (Genetools, LLC, One Summerton Way, Philomath, Oreg. 97370).
Briefly, loading into target cells was accomplished by complexing the PMO with a proprietary loading reagent, Ethoxylated Polyethylenimine (EPEI). Target cells (MT-2 or THP-1) were introduced into snap cap conical tubes (5×10^5 cells/tube) in 900 μl serum free RPMI and the EPEI-PMO complex was added for 4 hours at 37° C. in a 7% CO2 atmosphere. The PMO-EPEI complex was prepared by diluting 5 μl PMO in 40 μl sterile RNase-free water, adding 5 μl EPEI, vortexing and incubating the sample for 20 minutes at room temperature. The sample was then mixed with 50 μl serum-free RPMI and added to the target cells to yield a final volume of 1 ml. At the end of the loading period, cells were gently pelleted and the PMO solution was removed by aspiration. After a further wash, cells were incubated in complete RPMI for 12 hrs prior to HIV infection to allow for recovery and initiation of PMO action.
HIV-1 Infection. PMO-treated THP-1 or MT-2 cells were infected with 50 μl of concentrated HIV-1 89.6 diluted to 1 ml in serum-free RPMI. The following control cultures were identically infected: (i) to control for any non-specific effect of the loading protocol, cells exposed to EPEI alone during the loading procedure; (ii) as a positive control for normal HIV infection, cells that were not exposed to either EPEI or EPEI-PMO; (iii) as a control for HIV inhibition, cells infected with HIV in the presence of 2 μM AZT and maintained in AZT throughout.
Cells were exposed to HIV for 4 hours. The inoculum was removed by 3 cycles of pelleting and rinsing. The cells were resuspended in 1.5 ml of complete RPMI and 0.5 ml immediately removed at Time 0 to leave a final volume of 1 ml. The Time 0 sample served as a measure of residual virus. At each harvest time (T1 through T4), 0.5 ml of supernatant was removed and replaced with an equal volume of complete RPMI. Samples were stored at −80° C. until evaluation using a p24 ELISA assay (described below). Each experimental variable and control was performed in duplicate. T1 through T4 typically corresponded to 16, 24, 40 and 48 hrs PI, respectively.
Validation of KSHV-induced gene sequences; HIV-1 p24 antigen ELISA. To monitor the effect of PMO-targeting of cellular proteins on HIV replication, supernatants harvested from PMO-treated and control THP and MT-2 cells were assayed using an HIV p24 antigen ELISA. The rationale behind this assay is described in the following paragraph.
The HIV-1 gag protein p24 is the major internal structural component of the virion core. The Coulter p24 assay is an enzyme-liked immunosorbent assay (ELISA) performed using a commercially available kit (Beckman Coulter). It was developed specifically for the detection and quantitation of HIV-1 p24 in plasma or serum, for clinical purposes, or in tissue culture supernatants, to monitor virus replication. Each kit contains a 96-well microtiter tray pre-coated with a monoclonal antibody to p24. A specimen of plasma, serum or tissue culture supernatant is added to each well along with a viral lysis buffer and incubated to allow any p24 antigen present to bind to the coated well. Following a wash, biotinylated human anti-HIV IgG is added and incubated to allow complexing to any bound p24. Following another wash, strepatavidin-HRP is added to complex with any bound biotinylated complexes. […]

WNV (NY1999) = test: Infectious WNV in culture supernatant of SKN-MC cells (plaque assay on Vero cells); type: cell-based, West Nile virus; details: multiplicity of infection 5, 20 μM, 22 hours post-infection (20 h post-PP2 addition)
Source text: SKN-MC neutoblastoma cells were infected with WNV at a multiplicity of 5.

WNV E protein = test: Endo H / PNGase F sensitivity of WNV E protein in infected Vero cells (western blot); type: cell-based, West Nile virus; details: WNV multiplicity 3, PP2 added 1 hpi, 24 hpi, consistent at 48 h
Procedure: Inhibition of src-family kinases (SFKs) may result in mis-localization or aberrant trafficking of WNV proteins, thereby interfering with formation of infectious particles. To test this hypothesis, lysates from WNV-infected cells (with or without PP2) were treated with Endoglycosidase H (Endo H) or Peptide N-glycosidase F (PNGase F).
Endo H removes immature high-mannose glycans from proteins. High-mannose structures are added to proteins in the endoplasmic reticulum (ER). Such structures are trimmed and further modified in the Golgi, conferring resistance to endo H. Sensitivity to endo H is therefore indicative of proteins that have not advanced beyond the endoplasmic reticulum in the secretory pathway (Maley, et al., Anal. Biochem. 180:195, 1989.
PNGase F will remove all glycan moieties regardless of modification.
Methods. Vero cells were infected with WNV (multiplicity=3) and treated with PP2 (or DMSO as a control) 1 h post-infection (hpi). At 24 or 48 hpi, cells were lysed in buffer containing 1% NP-40. Lysates were denatured and treated with endo H or PNGase F for 1 h. Samples were resolved by SDS-PAGE, and WNV E was detected by western blotting.

WNV RNA = test: Quantitative RT-PCR (Taqman) of WNV RNA within infected SKN-MC cells; type: cell-based, West Nile virus; details: 4 hours post PP2 addition, normalized to β-actin
Procedure: Specifically, cells were prepared as described above in relation to FIG. 8B. Four hours post fresh PP2 addition, RNA was isolated from 200 μl of cell lysate by Trizol reagent (Invitrogen), and 1 μg total RNA was used in a quantitative RT-PCR reaction (Taqman) using WNV-specific primer and probe set and standards. An additional RT-PCR was performed using β-actin-specific primers and probe, for an internal control. WNV RNA quantities were normalized to the β-actin values.

HIV-1 89.6 [2] = test: HIV replication assay (HIV-1 p24 antigen ELISA) in HIV-infected THP-1 and MT-2 cells; type: cell-based; details: MT-2 cells infected with HIV 89.6; continued presence of 10 μM
WNV = test: Infectious WNV within infected SKN-MC cell lysates (plaque assay on Vero cells); type: cell-based, West Nile virus
Procedure: Additionally, infectious virus within infected cell lysates was decreased almost 10^6-fold four hours post-addition of PP2 (FIG. 8B, gray bars; and FIG. 15, left panel). […] Specifically, SKN-MC cells were infected with WNV as above. At 2 hpi, cells were treated with PP2 at the indicated final concentrations. At 20 hpi, cells were re-fed with media containing fresh PP2 at the same concentration. Cells were washed 3-times with phosphate buffered saline (PBS), resuspended in 250 μl PBS, and then lysed by 3 successive freeze/thaws. Lysates were centrifuged at 13,000×g for 5 minutes, followed by collection of the supernatant. Infectious virus in soluble lysate was measured by plaque assay on Vero cells. Samples were collected 4-hours post-addition of fresh PP2 (gray bars) and 24 hours post addition of fresh PP2 (black bars). 24-hours post-addition of PP2, virus within the infected cell was approximately 500-fold lower, indicating some recovery from the effect of the drug (FIG. 8B, black bars).

[3] = tested on: mitochondrial respiration in viable cells; test: XTT respiration assay to assess compound toxicity; type: cell-based; details: at the concentrations used (20/40 μM Doxepin, 50/100 μM Pyrilamine, 50/100 μM Acyclovir, 20 μM PP2, 20 μM PP3)
Source text: The agents tested are cross-referenced to the respective bar graphs as shown in insert of the right panel. […] Briefly, the XTT assay is based on the cleavage of XTT (sodium 3-[1-(phenylamino-carbonyl)-3,4-tetrazolium]-bis (4-methoxy-6-nitro) benzene sulfonic acid hydrate) to form formazan by mitochondrial respiration in viable cells (see, e.g., Marshall et al., Growth Regul. 5:69-84, 1995).

c-yes mRNA = test: Quantitative RT-PCR of c-yes mRNA in siRNA-transfected Huh7 cells; type: cell-based, human; details: 2 μl of 20 μM siRNA per 300,000 cells, harvested 24 hpi
Procedure: Huh7 cells were transfected with either of c-yes-specific siRNAs 214 or 316, or a control siRNA directed against Lamins A and C. Transfection of 300,000 cells was carried out with 2 μl of a 20 μM siRNA (Dharmacon) and 1 μl Oligofectamine (Invitrogen) according to the manufacturer's protocol. Cells were […] 24 hours post-transfection, and cells and supernatant harvested at 24 hpi. 1 μg total cellular RNA was used for quantitative RT-PCR with c-yes-specific primers.

[4] = PMO-treated HIV-infected MT-2 cells
[5] = PMO-treated HIV-infected THP-1 cells

## Cc1cn([C@H]2C[C@H](N=[N+]=[N-])[C@@H](CO)O2)c(=O)[nH]c1=O [AZT]
HIV-infected MT-2 cells
  HIV-induced syncytia formation: substantially reduced syncytia formation

## CC(C)(C)n1nc(-c2ccc(Cl)cc2)c2c(N)ncnc21 [PP2, 4-Amino-5-(4-chlorophenyl)-7-(t-butyl)pyrazolo[3,4-d]pyrimidine]
HIV-1 89.6 [1]; HIV-infected cells, 20 μM
  anti-HIV activity (p24 production): substantial inhibition of HIV
WNV (NY1999)
  decrease of infectious WNV in the supernatant: 30 fold
HIV-infected MT-2 cells
  HIV-induced syncytia formation: substantially reduced syncytia formation
WNV E protein
  proportion of endo H-resistant population of WNV E protein: dramatically decreased
WNV RNA
  viral RNA within infected cells, treated vs untreated: no significant difference
HIV-1 89.6 [2]
  HIV p24 production: substantial decrease
WNV; 24 hours post-addition of fresh PP2
  virus within the infected cell, lower than untreated: approximately 500 fold
WNV; four hours post-addition of fresh PP2
  decrease of infectious virus within infected cell lysates: ~10^6 fold

## CN(C)CCC=C1c2ccccc2COc2ccccc21 [doxepin]
[3]
  compound toxicity (XTT respiration assay): Except for the higher concentration of doxepin, the compounds were not toxic

## ARF1 (antisense ATGCTTGTGGACAGGTGGAAGGACA; all phosphorodiamidate morpholino (PMO))
HIV-1 89.6 [1]
  Extent of PMO-induced Inhibition of HIV replication: (negative)
HIV-1 89.6 [1]; [4]
  inhibition of HIV replication (HIV p24 gag production): little or no affect on HIV replication

## HMG20B (antisense CGCCCAGCATCTTGGTGATCTCGGG; all phosphorodiamidate morpholino (PMO))
HIV-1 89.6 [1]
  Extent of PMO-induced Inhibition of HIV replication: positive
HIV-1 89.6 [1]; [4]
  inhibition of HIV replication (HIV p24 gag production): particularly effective at reproducibly inhibiting HIV replication
HIV-1 89.6 [1]; [5]
  inhibition of HIV replication (HIV p24 gag production): particularly effective at reproducibly inhibiting HIV replication

## HRH1 (antisense GCGAAAGAGCAGCCGCCAGTTATGG; all phosphorodiamidate morpholino (PMO))
HIV-1 89.6 [1]
  Extent of PMO-induced Inhibition of HIV replication: positive
HIV-1 89.6 [1]; [4]
  inhibition of HIV replication (HIV p24 gag production): particularly effective at reproducibly inhibiting HIV replication
HIV-1 89.6 [1]; [5]
  inhibition of HIV replication (HIV p24 gag production): particularly effective at reproducibly inhibiting HIV replication

## YES (antisense TTTCTTTACTTTTAATGCAGCCCAT; all phosphorodiamidate morpholino (PMO))
HIV-1 89.6 [1]
  Extent of PMO-induced Inhibition of HIV replication: positive
HIV-1 89.6 [1]; [4]
  inhibition of HIV replication (HIV p24 gag production): particularly effective at reproducibly inhibiting HIV replication
HIV-1 89.6 [1]; [5]
  inhibition of HIV replication (HIV p24 gag production): particularly effective at reproducibly inhibiting HIV replication

## c-yes-specific siRNA 214 (guide AACGCCUUUUGGAGGUGCAUC; chemistry not given here; listed as Homo sapiens)
c-yes mRNA
  c-yes mRNA: reduction of c-yes mRNA
